Measured values published in ChEMBL document CHEMBL6121057, “Discovery of an Orally Bioavailable STING Inhibitor with In Vivo Anti-Inflammatory Activity in Mice with STING-Mediated Inflammation” (J Med Chem, 2025).
Calls of active or inactive are those of the source. No cut-off for these calls is given here.

Assays:
[1] = molecular target: T1, Stimulator of interferon genes protein (Mus musculus) (UniProt Q3TBT3); assay: In vivo inhibition of STING activation in Trex1-KO mouse assessed as decrease in Ccl2 mRNA level in muscle at 10 mg/kg, po qd treated for 2 weeks by quantitative PCR analysis; assay type: functional, organism-based
T1 sequence (whole entry): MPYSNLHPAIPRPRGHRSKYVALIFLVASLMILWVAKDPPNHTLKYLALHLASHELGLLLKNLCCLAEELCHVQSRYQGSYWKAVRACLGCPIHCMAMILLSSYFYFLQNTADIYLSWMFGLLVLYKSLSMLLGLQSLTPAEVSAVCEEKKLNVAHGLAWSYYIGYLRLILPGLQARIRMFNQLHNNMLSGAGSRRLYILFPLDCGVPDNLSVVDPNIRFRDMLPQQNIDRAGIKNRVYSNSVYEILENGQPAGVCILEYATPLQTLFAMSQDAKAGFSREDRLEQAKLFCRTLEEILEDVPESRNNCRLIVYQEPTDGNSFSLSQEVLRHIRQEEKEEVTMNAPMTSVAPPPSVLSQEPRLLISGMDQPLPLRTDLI

[2] = Metabolic stability in human liver microsomes assessed as half life; assay type: ADME, Microsome
[3] = Half life in Sprague-Dawley rat at 10 mg/kg, po measured upto 60 mins by LC-MS/MS analysis; assay type: ADME, organism-based; settings: in vivo
[4] = molecular target: Stimulator of interferon genes protein (Homo sapiens) (UniProt Q86WV6); assay: Inhibition of STING in human THP-1 cells assessed as decrease in p-p65 level at 0.1 to 1 uM preincubated for 1 hr followed by 2',3'-cGAMP stimulation for 3 hrs by Western blot analysis; assay type: cell-based; settings: dose 0.1-1 µM, time 4.0 hrs
Stimulator of interferon genes protein (Homo sapiens), sequence (Q86WV6 whole entry): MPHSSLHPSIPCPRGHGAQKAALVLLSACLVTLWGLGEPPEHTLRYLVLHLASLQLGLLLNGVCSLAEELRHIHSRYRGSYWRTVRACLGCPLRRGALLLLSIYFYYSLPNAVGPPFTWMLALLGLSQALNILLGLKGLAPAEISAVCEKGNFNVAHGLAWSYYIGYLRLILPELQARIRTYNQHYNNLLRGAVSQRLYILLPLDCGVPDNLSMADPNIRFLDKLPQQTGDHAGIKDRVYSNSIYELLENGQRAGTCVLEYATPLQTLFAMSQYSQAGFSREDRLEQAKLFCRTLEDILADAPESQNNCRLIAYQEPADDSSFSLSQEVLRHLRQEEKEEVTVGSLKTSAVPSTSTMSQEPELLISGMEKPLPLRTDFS

[5] = molecular target: T1, Stimulator of interferon genes protein (Mus musculus); assay: Inhibition of STING in mouse L929 cells assessed as decrease in CXCL10 mRNA level preincubated for 1 hr followed by 2',3'-cGAMP stimulation for 6 hrs by real-time PCR analysis; assay type: cell-based; settings: dose 0.1-1 µM, time 7.0 hrs
[6] = molecular target: T1, Stimulator of interferon genes protein (Mus musculus); assay: In vivo inhibition of STING activation in Trex1-KO mouse assessed as decrease in Isg15 mRNA level in tongue at 10 mg/kg, po qd treated for 2 weeks by quantitative PCR analysis; assay type: functional, organism-based
[7] = molecular target: T1, Stimulator of interferon genes protein (Mus musculus); assay: Inhibition of STING phosphorylation in mouse L929 cells at 0.1 to 1 uM preincubated for 1 hr followed by 2',3'-cGAMP stimulation for 6 hrs by Western blot analysis; assay type: cell-based; settings: dose 0.1-1 µM, time 7.0 hrs
[8] = Cmax in Sprague-Dawley rat at 10 mg/kg, po measured […] by LC-MS/MS analysis; assay type: ADME, organism-based; settings: in vivo
[9] = molecular target: T1, Stimulator of interferon genes protein (Mus musculus); assay: Inhibition of STING in mouse L929 cells assessed as decrease in pIRF3 level at 0.1 to 1 uM preincubated for 1 hr followed by 2',3'-cGAMP stimulation for 6 hrs by Western blot analysis; assay type: cell-based; settings: dose 0.1-1 µM, time 7.0 hrs
[10] = molecular target: T1, Stimulator of interferon genes protein (Mus musculus); assay: In vivo inhibition of CMA-induced STING activation in C57BL/6JNifdc mouse model assessed as decrease in serum INF-beta level administered orally pretreated for 2 hrs followed by CMA treatment for 4 hrs by ELISA; assay type: functional, organism-based; settings: dose 3-30 mg/kg, route po, time 6.0 hrs
[11] = Cmax in Sprague-Dawley rat at 2 mg/kg, iv measured […] by LC-MS/MS analysis; assay type: ADME, organism-based; settings: in vivo
[12] = molecular target: T1, Stimulator of interferon genes protein (Mus musculus); assay: In vivo inhibition of STING activation in Trex1-KO mouse assessed as decrease in Ifit3 mRNA level in heart at 10 mg/kg, po qd treated for 2 weeks by quantitative PCR analysis; assay type: functional, organism-based
[13] = Tmax in Sprague-Dawley rat at 10 mg/kg, po measured […] by LC-MS/MS analysis; assay type: ADME, organism-based; settings: in vivo
[14] = Half life in Sprague-Dawley rat at 2 mg/kg, iv measured upto 60 mins by LC-MS/MS analysis; assay type: ADME, organism-based; settings: in vivo
[15] = Acute toxicity in C57BL/6JNifdc mouse assessed as behavioural abnormality at 2000 mg/kg, po administered as single dose measured for 14 days; assay type: organism-based; settings: in vivo, 336 h, time 14 day
[16] = molecular target: T1, Stimulator of interferon genes protein (Mus musculus); assay: Inhibition of STING in mouse L929 cells assessed as decrease in IL-6 mRNA level preincubated for 1 hr followed by 2',3'-cGAMP stimulation for 6 hrs by real-time PCR analysis; assay type: cell-based; settings: dose 0.1-1 µM, time 7.0 hrs
[17] = molecular target: T1, Stimulator of interferon genes protein (Mus musculus); assay: Inhibition of STING in mouse L929 cells assessed as decrease in IFNB mRNA level preincubated for 1 hr followed by 2',3'-cGAMP stimulation for 6 hrs by real-time PCR analysis; assay type: cell-based; settings: dose 0.1-1 µM, time 7.0 hrs
[18] = molecular target: T1, Stimulator of interferon genes protein (Mus musculus); assay: Inhibition of STING in mouse L929 cells assessed as decrease in ISG15 mRNA level preincubated for 1 hr followed by 2',3'-cGAMP stimulation for 6 hrs by real-time PCR analysis; assay type: cell-based; settings: dose 0.1-1 µM, time 7.0 hrs
[19] = molecular target: Stimulator of interferon genes protein (Homo sapiens) (UniProt Q86WV6); assay: Inhibition of STING in human THP-1 cells assessed as decrease in CXCL10 mRNA level preincubated for 1 hr followed by 2',3'-cGAMP stimulation for 6 hrs by real-time PCR analysis; assay type: cell-based; settings: dose 0.1-1 µM, time 7.0 hrs
[20] = molecular target: T1, Stimulator of interferon genes protein (Mus musculus); assay: In vivo inhibition of STING activation in Trex1-KO mouse assessed as decrease in Irf7 mRNA level in heart at 10 mg/kg, po qd treated for 2 weeks by quantitative PCR analysis; assay type: functional, organism-based
[21] = molecular target: T1, Stimulator of interferon genes protein (Mus musculus); assay: In vivo inhibition of STING activation in Trex1-KO mouse assessed as decrease in Ccl2 mRNA level in heart at 10 mg/kg, po qd treated for 2 weeks by quantitative PCR analysis; assay type: functional, organism-based
[22] = AUC (0 to t) in Sprague-Dawley rat at 10 mg/kg, po measured upto 60 mins by LC-MS/MS analysis; assay type: ADME, organism-based; settings: in vivo
[23] = molecular target: T1, Stimulator of interferon genes protein (Mus musculus); assay: Inhibition of STING in mouse L929 cells assessed as decrease in p-p65 level at 0.1 to 1 uM preincubated for 1 hr followed by 2',3'-cGAMP stimulation for 6 hrs by Western blot analysis; assay type: cell-based; settings: dose 0.1-1 µM, time 7.0 hrs
[24] = Acute toxicity in C57BL/6JNifdc mouse assessed as animal death at 2000 mg/kg, po administered as single dose measured for 14 days; assay type: organism-based; settings: in vivo, 336 h, time 14 day
[25] = molecular target: T1, Stimulator of interferon genes protein (Mus musculus); assay: In vivo inhibition of STING activation in Trex1-KO mouse assessed as decrease in Cxcl10 mRNA level in muscle at 10 mg/kg, po qd treated for 2 weeks by quantitative PCR analysis; assay type: functional, organism-based
[26] = molecular target: T1, Stimulator of interferon genes protein (Mus musculus); assay: In vivo inhibition of STING activation in Trex1-KO mouse assessed as decrease in Isg15 mRNA level in muscle at 10 mg/kg, po qd treated for 2 weeks by quantitative PCR analysis; assay type: functional, organism-based

With O=C(Nc1ccc(C2CCC(F)(F)CC2)cc1)Nc1c[nH]c2ccc(Cl)cc12 the inhibition [1] was “Active”, the half-life [2] was 0.52 h and the half-life [3] was 4.4 h. For the same compound, the inhibition [4] was “Active”, the inhibition [5] was “Dose-dependent-effect” and the inhibition [6] was “Active”. For the same compound, the inhibition [7] was “Active”, the Cmax [8] was 336 ng/mL and the inhibition [9] was “Active”. For the same compound, the inhibition [10] was “Dose-dependent-effect”, the Cmax [11] was 1800 ng/mL and the inhibition [12] was “Active”. The Tmax [13] was 1 h, the half-life [14] was 5.3 h and the Activity [15] was “Non-toxic”. For the same compound, the inhibition [16] was “Dose-dependent-effect”, the inhibition [17] was “Dose-dependent-effect” and the inhibition [18] was “Dose-dependent-effect”. For the same compound, the inhibition [19] was “Dose-dependent-effect”, the inhibition [20] was “Active” and the inhibition [21] was “Active”. The AUC(0-t) at 1 h [22] was 1020 ng·h/mL, the inhibition [23] was “Active” and the Activity [24] was “Non-toxic”. For the same compound, the inhibition [25] was “Active” and the inhibition [26] was “Active”.
